The values that follow are results of earlier work, collected in US20190374622A1, “COMPOSITION AND METHOD FOR CO-ADMINISTRATION WITH A GROWTH PROMOTANT” (OmniGen Research, LLC, priority 2014, published 2019).

Where a name gives a salt, the structure may show the parent alone. Read-outs that look alike come from different tables or passages of the source.

The conditions of data set [1]: finishing swine; cited from earlier work.
The conditions of data set [2]: cattle, cited from earlier work.
The conditions of data set [3]: cited from earlier work; for increase in average daily weight gain: last 2 weeks.
For data set [4] the following is noted: cited from earlier work.
The mark [5] stands for this setting: 300 mg per head per day, vs cattle that did not receive it.

Regarding `CC(CCc1ccc(O)cc1)NCC(O)c1ccc(O)cc1` (racemic) [Ractopamine hydrochloride, 4-[3-[[2-hydroxy-2-(4-hydroxyphenyl)ethyl]amino]butyl]phenol], in data set [1], the better feed efficiency was 10%, the fat-free lean gain result is “improve”, the “increase in average daily gain” value is recorded as 10% and the “increase in carcass weights” value is given as 5 pounds. Also, the meat quality entry in data set [1] is given as “not affecting”. Also, in data set [2] (setting [5]), the “increase in hot carcass weight” value is recorded as 20 pounds and the “increase in live weight” value was 22 pounds. Besides, in data set [2], the “carcass leanness and yield grade” value is listed as “improves”; the “carcass quality, as measured by marbling score and quality grade” value is “no effect”. Moreover, in data set [3] (hens), the “increase in average daily weight gain” value is 19%. Also, the “increase in average daily weight gain” value in data set [3] (toms) is on record as 13%. Further, the “meat quality, including pH, color and tenderness” value in data set [3] (turkeys) is given as “no effect”.
Consider `CC(C)NC1CCn2c(=O)[nH]c3cccc(c32)C1O` (stereo not drawn) [Zilpaterol hydrochloride, 4,5,6,7-tetrahydro-7-hydroxy-6-(isopropylamino)imidazo[4,5,1-jk][1]benzazepin-2(1H)-one], for which, in data set [4] (cattle, administered as Zilmax, one study (Intervet/Schering Plough 2010)), the “improvement of feed efficiency” value was 3%. In addition, in data set [4], the “number of Yield Grade 4 and 5 cattle” value is reported as “cut”; the “percentage of Yield Grade 1 cattle” value is “increase”.
